pEC50, pKi: −log10 of the molar value. ≈ marks a conversion by molar mass, not a printed value. Calls of active or inactive are those of the source. The calls are words filed in the database; no cut-off is given here.
Columns and labels:
[1] = target: T1, Metabotropic glutamate receptor 2 (Homo sapiens, UniProt Q14416); test: Positive allosteric modulation of recombinant human mGlu2 receptor expressed in CHO cells assessed as potentiation of glutamate-induced effect preincubated for 5 mins followed by glutamate stimulation for 3 mins by Fluo-4AM staining-based FLIPR assay; type: cell-based
[2] = target: Metabotropic glutamate receptor 3 (Homo sapiens, UniProt Q14832); test: Positive allosteric modulation of mGlu3 receptor (unknown origin)
[3] = target: Metabotropic glutamate receptor 4 (Homo sapiens, UniProt Q14833); test: Positive allosteric modulation of mGlu4 receptor (unknown origin)
Chain of Metabotropic glutamate receptor 4 (Q14833 whole entry): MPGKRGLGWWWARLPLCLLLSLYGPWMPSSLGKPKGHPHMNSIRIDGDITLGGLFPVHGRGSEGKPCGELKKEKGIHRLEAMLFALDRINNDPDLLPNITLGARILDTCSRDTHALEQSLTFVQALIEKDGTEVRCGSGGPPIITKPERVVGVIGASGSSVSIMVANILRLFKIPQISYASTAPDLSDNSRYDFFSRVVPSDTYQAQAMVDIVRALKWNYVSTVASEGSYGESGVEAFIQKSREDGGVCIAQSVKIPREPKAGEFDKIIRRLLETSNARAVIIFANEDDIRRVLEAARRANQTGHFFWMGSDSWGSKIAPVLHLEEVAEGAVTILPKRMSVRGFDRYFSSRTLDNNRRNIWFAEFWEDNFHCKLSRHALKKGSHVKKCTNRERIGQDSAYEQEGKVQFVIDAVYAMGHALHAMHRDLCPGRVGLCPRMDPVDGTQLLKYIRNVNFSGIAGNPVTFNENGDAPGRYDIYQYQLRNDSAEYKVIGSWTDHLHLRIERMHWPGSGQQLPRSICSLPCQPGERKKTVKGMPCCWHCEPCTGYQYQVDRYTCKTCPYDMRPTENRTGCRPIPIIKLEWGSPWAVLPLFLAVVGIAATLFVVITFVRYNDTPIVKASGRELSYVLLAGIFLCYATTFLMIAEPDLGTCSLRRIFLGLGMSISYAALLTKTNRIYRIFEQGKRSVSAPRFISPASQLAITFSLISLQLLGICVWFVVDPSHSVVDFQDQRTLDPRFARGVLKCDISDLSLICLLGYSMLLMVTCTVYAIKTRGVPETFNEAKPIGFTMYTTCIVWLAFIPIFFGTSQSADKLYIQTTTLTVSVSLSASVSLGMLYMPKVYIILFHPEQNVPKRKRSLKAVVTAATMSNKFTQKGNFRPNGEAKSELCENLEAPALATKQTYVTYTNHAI

[4] = target: Metabotropic glutamate receptor 5 (Homo sapiens, UniProt P41594); test: Positive allosteric modulation of mGlu5 receptor (unknown origin)
Chain of Metabotropic glutamate receptor 5 (P41594 whole entry): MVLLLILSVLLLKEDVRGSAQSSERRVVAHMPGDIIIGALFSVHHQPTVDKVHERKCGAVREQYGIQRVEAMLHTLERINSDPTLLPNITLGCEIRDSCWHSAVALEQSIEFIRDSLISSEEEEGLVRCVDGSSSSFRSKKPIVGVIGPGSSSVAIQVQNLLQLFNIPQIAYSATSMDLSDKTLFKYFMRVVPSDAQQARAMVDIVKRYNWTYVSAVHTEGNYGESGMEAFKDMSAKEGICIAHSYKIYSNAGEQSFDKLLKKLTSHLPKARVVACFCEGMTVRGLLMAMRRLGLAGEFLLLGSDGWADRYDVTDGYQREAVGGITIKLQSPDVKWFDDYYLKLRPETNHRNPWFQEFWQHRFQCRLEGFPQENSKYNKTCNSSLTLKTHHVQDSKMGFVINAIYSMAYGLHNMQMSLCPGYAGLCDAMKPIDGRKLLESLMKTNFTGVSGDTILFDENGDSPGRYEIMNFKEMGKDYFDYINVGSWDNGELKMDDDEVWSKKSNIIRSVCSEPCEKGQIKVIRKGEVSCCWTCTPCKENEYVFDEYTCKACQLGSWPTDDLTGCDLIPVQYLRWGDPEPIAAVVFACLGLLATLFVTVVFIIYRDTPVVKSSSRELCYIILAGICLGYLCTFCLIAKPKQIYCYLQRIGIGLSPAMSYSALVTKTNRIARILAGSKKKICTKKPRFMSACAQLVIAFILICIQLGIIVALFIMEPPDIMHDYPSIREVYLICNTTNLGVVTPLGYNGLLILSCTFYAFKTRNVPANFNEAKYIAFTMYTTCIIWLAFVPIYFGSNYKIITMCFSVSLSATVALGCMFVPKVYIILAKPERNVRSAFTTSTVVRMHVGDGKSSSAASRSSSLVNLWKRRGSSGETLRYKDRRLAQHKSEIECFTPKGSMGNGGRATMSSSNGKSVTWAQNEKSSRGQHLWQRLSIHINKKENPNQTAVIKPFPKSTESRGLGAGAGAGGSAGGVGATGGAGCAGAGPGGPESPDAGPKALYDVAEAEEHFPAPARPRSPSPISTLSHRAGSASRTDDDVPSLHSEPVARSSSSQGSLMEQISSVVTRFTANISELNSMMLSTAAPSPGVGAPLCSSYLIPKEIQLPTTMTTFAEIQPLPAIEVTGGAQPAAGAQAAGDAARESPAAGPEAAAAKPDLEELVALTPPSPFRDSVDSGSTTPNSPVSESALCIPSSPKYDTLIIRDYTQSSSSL

[5] = target: Metabotropic glutamate receptor 6 (Homo sapiens, UniProt O15303); test: Positive allosteric modulation of mGlu6 receptor (unknown origin)
Chain of Metabotropic glutamate receptor 6 (O15303 whole entry): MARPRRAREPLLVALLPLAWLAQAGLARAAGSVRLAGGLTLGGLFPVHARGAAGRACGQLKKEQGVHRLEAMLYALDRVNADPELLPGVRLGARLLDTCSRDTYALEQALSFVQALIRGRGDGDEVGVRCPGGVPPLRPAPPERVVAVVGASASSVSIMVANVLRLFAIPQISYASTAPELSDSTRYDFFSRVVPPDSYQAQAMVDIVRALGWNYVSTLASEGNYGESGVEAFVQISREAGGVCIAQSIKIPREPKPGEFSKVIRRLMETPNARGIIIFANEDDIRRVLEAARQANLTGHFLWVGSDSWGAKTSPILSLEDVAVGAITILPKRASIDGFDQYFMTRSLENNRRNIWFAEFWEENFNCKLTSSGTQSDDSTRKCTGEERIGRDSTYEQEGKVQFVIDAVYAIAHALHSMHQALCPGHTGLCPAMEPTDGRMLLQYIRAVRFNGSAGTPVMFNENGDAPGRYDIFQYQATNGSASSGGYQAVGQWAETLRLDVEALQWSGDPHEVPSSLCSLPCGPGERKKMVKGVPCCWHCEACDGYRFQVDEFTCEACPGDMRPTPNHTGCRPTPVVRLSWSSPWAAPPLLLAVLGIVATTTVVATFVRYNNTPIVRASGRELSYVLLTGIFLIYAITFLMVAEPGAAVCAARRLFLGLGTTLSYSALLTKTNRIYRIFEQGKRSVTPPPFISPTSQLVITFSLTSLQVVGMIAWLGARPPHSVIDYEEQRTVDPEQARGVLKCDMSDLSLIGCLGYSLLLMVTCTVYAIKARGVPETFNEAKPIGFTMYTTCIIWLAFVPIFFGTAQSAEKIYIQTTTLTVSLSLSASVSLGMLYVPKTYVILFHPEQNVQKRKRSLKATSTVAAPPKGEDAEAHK

CYP3A4 [6] = target: T2, CYP3A4 (Homo sapiens, UniProt P08684); test: Inhibition of CYP3A4 in human liver microsomes at 10 uM; type: ADME
T2 sequence (P08684 whole entry): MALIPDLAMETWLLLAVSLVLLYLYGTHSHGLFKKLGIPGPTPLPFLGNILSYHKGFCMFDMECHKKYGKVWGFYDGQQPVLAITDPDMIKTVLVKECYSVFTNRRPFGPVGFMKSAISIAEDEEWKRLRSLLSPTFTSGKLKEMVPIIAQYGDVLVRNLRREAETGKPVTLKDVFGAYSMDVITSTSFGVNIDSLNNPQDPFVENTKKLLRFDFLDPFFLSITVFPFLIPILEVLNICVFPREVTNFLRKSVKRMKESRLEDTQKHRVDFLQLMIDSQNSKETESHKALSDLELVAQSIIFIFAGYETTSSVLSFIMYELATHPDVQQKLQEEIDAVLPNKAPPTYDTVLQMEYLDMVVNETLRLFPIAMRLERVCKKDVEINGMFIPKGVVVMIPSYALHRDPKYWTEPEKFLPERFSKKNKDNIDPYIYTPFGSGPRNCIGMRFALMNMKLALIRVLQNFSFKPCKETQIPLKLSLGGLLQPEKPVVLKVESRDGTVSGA

[7] = Solubility of compound at pH 7; type: physicochemical; settings: buffer
[8] = Half life in Wistar Hannover rat at 2 mg/kg, iv administered as single dose; type: ADME, organism-based; settings: in vivo
[9] = Clearance in Wistar Hannover rat at 2 mg/kg, iv administered as single dose; type: ADME, organism-based; settings: in vivo
Rattus norvegicus [10] = test: Fraction unbound adjusted clearance in Wistar Hannover rat at 2 mg/kg, iv administered as single dose; type: ADME, organism-based; settings: in vivo
[11] = (§1) AUC in Wistar Hannover rat at 10 mg/kg, po administered as single dose; type: ADME, organism-based; settings: Wistar Hannover, in vivo
[12] = (§2) Oral bioavailability in Wistar Hannover rat at 10 mg/kg administered as single dose; type: ADME, organism-based; settings: Wistar Hannover, in vivo
[13] = Fraction unbound in Beagle dog plasma at 0.5 mg/kg, iv administered as single dose; type: ADME, organism-based, Canis lupus familiaris
[14] = Substrate activity at human P-gp assessed as apparent permeability; type: ADME
P-gp [15] = test: Substrate activity at rat P-gp assessed as efflux ratio of apparent permeability from basolateral to apical side to apical to basolateral side; type: ADME; settings: not told
P-gp [16] = test: Substrate activity at rat P-gp assessed as apparent permeability; type: ADME; settings: not told
[17] = target: T1, Metabotropic glutamate receptor 2; test: Agonist activity at recombinant human mGlu2 receptor expressed in CHO cells assessed as potentiation of glutamate-induced effect preincubated for 5 mins followed by glutamate stimulation for 3 mins by Fluo-4AM staining-based FLIPR assay; type: cell-based
[18] = target: T1, Metabotropic glutamate receptor 2; test: Positive allosteric modulation of recombinant human mGlu2 receptor expressed in CHO cells assessed as decrease in glutamate EC50 at 1 uM preincubated for 5 mins followed by glutamate stimulation for 3 mins by Fluo-4AM staining-based FLIPR assay relative to control; type: cell-based
Target sequence in this assay (Q14416 19-872 limits assumed): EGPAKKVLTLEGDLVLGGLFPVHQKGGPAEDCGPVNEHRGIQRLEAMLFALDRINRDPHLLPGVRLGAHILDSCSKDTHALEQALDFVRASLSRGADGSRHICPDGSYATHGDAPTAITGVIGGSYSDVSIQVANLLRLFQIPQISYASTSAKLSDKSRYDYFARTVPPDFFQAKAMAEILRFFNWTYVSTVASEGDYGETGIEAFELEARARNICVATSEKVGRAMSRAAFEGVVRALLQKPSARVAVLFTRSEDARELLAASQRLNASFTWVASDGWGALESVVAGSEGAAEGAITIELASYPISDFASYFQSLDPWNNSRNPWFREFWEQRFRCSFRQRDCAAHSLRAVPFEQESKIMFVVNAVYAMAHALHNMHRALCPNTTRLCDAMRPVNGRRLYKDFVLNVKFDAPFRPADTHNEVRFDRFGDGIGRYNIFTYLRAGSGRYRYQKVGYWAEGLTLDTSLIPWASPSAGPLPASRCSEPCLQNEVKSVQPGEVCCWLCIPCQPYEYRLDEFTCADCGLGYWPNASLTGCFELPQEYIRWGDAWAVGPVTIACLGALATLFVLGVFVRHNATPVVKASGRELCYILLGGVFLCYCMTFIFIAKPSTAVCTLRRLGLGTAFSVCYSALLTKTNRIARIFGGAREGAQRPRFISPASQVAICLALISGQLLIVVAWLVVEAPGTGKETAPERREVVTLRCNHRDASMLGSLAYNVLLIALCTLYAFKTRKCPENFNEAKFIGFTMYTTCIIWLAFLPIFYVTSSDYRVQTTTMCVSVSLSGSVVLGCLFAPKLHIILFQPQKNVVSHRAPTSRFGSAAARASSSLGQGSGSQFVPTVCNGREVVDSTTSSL

[19] = Half life in Beagle dog at 0.5 mg/kg, iv administered as single dose; type: ADME, organism-based, Canis lupus familiaris; settings: in vivo
[20] = Clearance in Beagle dog at 0.5 mg/kg, iv administered as single dose; type: ADME, organism-based, Canis lupus familiaris; settings: in vivo
[21] = AUC in Beagle dog at 1 mg/kg, po administered as single dose; type: ADME, organism-based, Canis lupus familiaris; settings: in vivo
[22] = Oral bioavailability in Beagle dog at 1 mg/kg administered as single dose; type: ADME, organism-based, Canis lupus familiaris; settings: in vivo
[23] = Intrinsic clearance in dog liver microsomes at 10 uM incubated for 20 to 60 mins by LC-HRMS analysis in presence of NADPH/GSH; type: ADME, Canis lupus familiaris; settings: read-out: CLH
Rattus norvegicus [24] = test: Antipsychotic activity in Sprague-Dawley rat assessed as inhibition of MK-801-induced hyperlocomotive activity at 10 mg/kg, treated for 30 mins followed by MK-801 challenge measured over 90 mins relative to vehicle control; type: functional, organism-based
Plasma = test: Plasma concentration in Sprague-Dawley rat at 10 mg/kg, po; type: ADME, organism-based; settings: in vivo
CYP3A4 [25] = target: T2, CYP3A4; test: (§3) Time dependent inhibition of CYP3A4 in human liver microsomes; type: ADME; settings: human, liver microsomes
Cytochrome P450 3A4 = Cytochrome P450 3A4 (Homo sapiens, UniProt P08684); test: as §3; type: ADME
Chain of Cytochrome P450 3A4 (P08684 whole entry): as the sequence (P08684 whole entry) above

Canis familiaris = test: Fraction unbound adjusted clearance in Beagle dog at 0.5 mg/kg, iv administered as single dose; type: ADME, organism-based, Canis lupus familiaris; settings: in vivo
Rattus norvegicus [26] = test: Antipsychotic activity in Sprague-Dawley rat assessed as inhibition of MK-801-induced hyperlocomotive activity at 30 mg/kg, treated for 30 mins followed by MK-801 challenge measured over 90 mins relative to vehicle control; type: functional, organism-based
[27] = Fraction unbound in Wistar Hannover rat plasma at 2 mg/kg, iv administered as single dose; type: ADME, organism-based
[28] = target: Metabotropic glutamate receptor 2 (Rattus norvegicus, UniProt P31421); test: Positive allosteric modulation of rat mGlu2 receptor assessed as potentiation of glutamate-induced effect by Fluo-4AM staining-based FLIPR assay
Rattus norvegicus [29] = test: as §1; type: ADME, organism-based; settings: in vivo
Rattus norvegicus [30] = test: as §2; type: ADME, organism-based; settings: in vivo
Cerebrospinal fluid = test: Drug uptake in Sprague-Dawley rat cerebrospinal fluid at 30 mg/kg, po; type: ADME, organism-based; settings: in vivo, read-out: Drug uptake
Salmonella typhimurium [31] = test: Mutagenicity in Salmonella typhimurium by Ames test in presence of S9 liver fraction; type: toxicity, organism-based; settings: salmonella enterica subsp. enterica serovar typhimurium
Salmonella typhimurium [32] = test: Mutagenicity in Salmonella typhimurium by Ames test in absence of S9 liver fraction; type: toxicity, organism-based; settings: salmonella enterica subsp. enterica serovar typhimurium
[33] = target: D(2) dopamine receptor (Homo sapiens) (UniProt P14416); test: Activity at dopamine D2 receptor (unknown origin)
[34] = target: 5-hydroxytryptamine receptor 2A (Homo sapiens) (UniProt P28223); test: Activity at 5HT2A receptor (unknown origin)
Chain of 5-hydroxytryptamine receptor 2A (Homo sapiens) (P28223 whole entry): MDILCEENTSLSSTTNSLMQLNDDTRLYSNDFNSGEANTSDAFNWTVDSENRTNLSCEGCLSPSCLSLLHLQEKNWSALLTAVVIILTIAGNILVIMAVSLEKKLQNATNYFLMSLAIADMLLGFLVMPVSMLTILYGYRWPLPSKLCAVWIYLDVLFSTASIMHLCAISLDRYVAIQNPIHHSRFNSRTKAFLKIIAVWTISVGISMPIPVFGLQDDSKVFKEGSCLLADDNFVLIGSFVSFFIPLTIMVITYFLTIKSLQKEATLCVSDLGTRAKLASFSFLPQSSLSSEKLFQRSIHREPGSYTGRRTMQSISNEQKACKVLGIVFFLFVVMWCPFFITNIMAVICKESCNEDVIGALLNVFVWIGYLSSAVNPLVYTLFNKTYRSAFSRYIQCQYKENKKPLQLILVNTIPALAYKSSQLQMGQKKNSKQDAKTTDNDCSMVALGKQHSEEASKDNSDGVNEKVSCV

Homo sapiens = species on record: Homo sapiens; test: Activity at PDE10 (unknown origin)

Work on `Cn1c(=O)n(CC(C)(C)C)c2ccc(N3CC4CCC3CN4C(=O)OC(C)(C)C)nc21` (racemic) yielded a %max [1] of 70%, a pEC50 [1] of 6.90 and a pEC50 [2] of under 4.52. The pEC50 [3] was under 4.52, the pEC50 [4] was under 4.52 and the pEC50 [5] was under 4.52.

With `Cn1c(=O)n(CC(C)(C)C)c2ccc(C3CCN(C(=O)c4ccon4)CC3)nc21` the %max [1] was 79%, the pEC50 [1] was 6.27 and the inhibition at 10 µM (CYP3A4 [6]) was 7%.

For `Cn1c(=O)n(CC(C)(C)C)c2ccc(N3CCCCC3)nc21`, the %max [1] was 87%, the pEC50 [1] was 6.37 and the pEC50 [2] was under 4.52. The pEC50 [3] was under 4.52, the pEC50 [4] was under 4.52 and the pEC50 [5] was under 4.52.

In the case of `Cn1c(=O)n(CC(C)(C)C)c2ccc(N3CC4CCC3CN4C(=O)c3ccccc3)nc21` (racemic), the %max [1] was 71%, the pEC50 [1] was 7.44 and the solubility [7] was 66 µM (≈ 28.6 µg/mL). The half-life [8] was 1.2 h, the clearance [9] was 69 mL/min/kg and the CL free (Rattus norvegicus [10]) was 35 mL/min/kg. The AUC [11] was 2 µM·h and the bioavailability [12] was 10%.

In the case of `Cn1c(=O)n(CC(C)(C)C)c2ccc(N3C[C@@H]4CC[C@H]3CN4C(=O)c3ccon3)nc21`, the fraction unbound [13] was 0.08, the Activity [14] was “Not Active” and the efflux ratio (P-gp [15]) was 1.5. For the same molecule, the Papp (P-gp [16]) was 31 ×10⁻⁶ cm/s, the %max [1] was 78% and the pEC50 [1] was 7.54. It also gave a %max [17] of 35%, a pEC50 [17] of 6.18 and a fold change (FC) [18] of 12. It also gave a pEC50 [2] of under 4.52, a pEC50 [3] of under 4.52 and a pEC50 [4] of under 4.52. The pEC50 [5] was under 4.52, the solubility [7] was 125 µM (≈ 53.1 µg/mL) and the half-life [19] was 12 h. It also gave a half-life [8] of 2.3 h, a clearance [20] of 7 mL/min/kg and a clearance [9] of 28 mL/min/kg. It also gave a CL free (Rattus norvegicus [10]) of 4.7 mL/min/kg, an AUC [11] of 14 µM·h and an AUC [21] of 1.3 µM·h. It also gave a bioavailability [12] of 72%, a bioavailability [22] of 24% and a CLint scaled at 10 µM [23] of under 55 mL/min/kg. For the same molecule, the Activity (Rattus norvegicus [24]) was “Active”, the concentration (Plasma) was 3200 nM and the kinact (CYP3A4 [25]) was 0.00107 s⁻¹. For the same molecule, the pKi (Cytochrome P450 3A4) was 6.27, the TDI (Cytochrome P450 3A4; human, microsomes) was “Active” and the inhibition at 10 µM (CYP3A4 [6]) was 73%. The CL free (Canis familiaris) was 0.9 mL/min/kg, the Activity (Rattus norvegicus [26]) was “Active” and the fraction unbound [27] was 0.06. The pEC50 [28] was 7.12.

For `Cn1c(=O)n(CC(C)(C)C)c2ccc(N3CC4CCC3CN4)nc21` (racemic), the %max [1] was 71%, the pEC50 [1] was 5.89 and the pEC50 [2] was under 4.52. It also gave a pEC50 [3] of under 4.52, a pEC50 [4] of under 4.52 and a pEC50 [5] of under 4.52.

`Cn1c(=O)n(CC(C)(C)C)c2ccc(N3CC4CCC3CN4c3ncccn3)nc21` (racemic) gave a %max [1] of 65%, a pEC50 [1] of 7.43 and a solubility [7] of 18 µM (≈ 7.34 µg/mL). It also gave an AUC [11] of 3.9 µM·h.

With `Cn1c(=O)n(CC(C)(C)C)c2ccc(N3CC4CCC3CN4C(=O)c3cccnc3)nc21` (racemic) the %max [1] was 74%, the pEC50 [1] was 6.94 and the solubility [7] was 183 µM (≈ 79.5 µg/mL). It also gave a half-life [8] of 0.5 h, a CL free (Rattus norvegicus [10]) of 2.9 mL/min/kg and an AUC (Rattus norvegicus [29]) of 18 µM·h. For the same molecule, the F (Rattus norvegicus [30]) was 73%.

`Cc1cc(CN2CC3CCC2CN3c2ccc3c(n2)n(C)c(=O)n3CC(C)(C)C)no1` (racemic) gave a %max [1] of 74%, a pEC50 [1] of 6.83 and a solubility [7] of 186 µM (≈ 79 µg/mL). It also gave an AUC [11] of 2 µM·h.

In the case of `Cn1c(=O)n(CC(C)(C)C)c2ccc(N3CCCc4ccccc43)nc21`, the %max [1] was 60%, the pEC50 [1] was 6.48 and the pEC50 [2] was under 4.52. For the same molecule, the pEC50 [3] was under 4.52, the pEC50 [4] was under 4.52 and the pEC50 [5] was under 4.52.

Molecule `Cn1c(=O)n(CC(C)(C)C)c2ccc(N3CCCC4CCCCC43)nc21` (mixture of isomers) has a %max [1] of 77%, a pEC50 [1] of 5.66 and a pEC50 [2] of under 4.52. For the same molecule, the pEC50 [3] was under 4.52, the pEC50 [4] was under 4.52 and the pEC50 [5] was under 4.52.

With `Cn1c(=O)n(CC(C)(C)C)c2ccc(N3C[C@@H]4CC[C@H]3CN4C(=O)c3csnn3)nc21` the Activity [14] was “Not Active”, the efflux ratio (P-gp [15]) was 1.1 and the Papp (P-gp [16]) was 30 ×10⁻⁶ cm/s. The %max [1] was 72%, the pEC50 [1] was 7.54 and the %max [17] was 49%. For the same molecule, the pEC50 [17] was 6.20, the fold change (FC) [18] was 26 and the pEC50 [2] was under 4.52. For the same molecule, the pEC50 [3] was under 4.52, the pEC50 [4] was under 4.52 and the pEC50 [5] was under 4.52. For the same molecule, the solubility [7] was 116 µM (≈ 51.2 µg/mL), the half-life [19] was 2.5 h and the clearance [20] was 14 mL/min/kg. The AUC [11] was 13 µM·h.

In the case of `Cn1c(=O)n(CC(C)(C)C)c2ccc(C3=C[C@@H]4CC[C@H]3CN4C(=O)c3ccon3)nc21`, the fraction unbound [13] was 0.02, the %max [1] was 78% and the pEC50 [2] was under 4.52. It also gave a pEC50 [3] of under 4.52, a pEC50 [4] of under 4.52 and a pEC50 [5] of under 4.52. For the same molecule, the half-life [19] was 16 h, the half-life [8] was 10 h and the CL free (Rattus norvegicus [10]) was 17 mL/min/kg. For the same molecule, the inhibition at 10 µM (CYP3A4 [6]) was 6%, the CL free (Canis familiaris) was 4.7 mL/min/kg and the Activity (Rattus norvegicus [26]) was “Active”. For the same molecule, the concentration (Cerebrospinal fluid) was 61 nM, the Activity (Salmonella typhimurium [31]) was “Non-toxic” and the Activity (Salmonella typhimurium [32]) was “Non-toxic”. The fraction unbound [27] was 0.02, the Activity [33] was “inactive” and the Activity [34] was “inactive”. For the same molecule, the Activity (Homo sapiens) was “inactive”.

Source: ChEMBL document CHEMBL3804754, “Optimization of Novel Aza-benzimidazolone mGluR2 PAMs with Respect to LLE and PK Properties and Mitigation of CYP TDI” (ACS Med Chem Lett, 2016)
